Assays:
[1] = target: T1, Prostaglandin G/H synthase 2 (Homo sapiens, UniProt P35354); assay: Inhibition of recombinant human COX2 using arachidonic acid as substrate assessed as decrease in PGF2 production preincubated for 15 mins followed by substrate addition measured after 2 mins by enzyme immunoassay
T1 sequence (P35354 whole entry): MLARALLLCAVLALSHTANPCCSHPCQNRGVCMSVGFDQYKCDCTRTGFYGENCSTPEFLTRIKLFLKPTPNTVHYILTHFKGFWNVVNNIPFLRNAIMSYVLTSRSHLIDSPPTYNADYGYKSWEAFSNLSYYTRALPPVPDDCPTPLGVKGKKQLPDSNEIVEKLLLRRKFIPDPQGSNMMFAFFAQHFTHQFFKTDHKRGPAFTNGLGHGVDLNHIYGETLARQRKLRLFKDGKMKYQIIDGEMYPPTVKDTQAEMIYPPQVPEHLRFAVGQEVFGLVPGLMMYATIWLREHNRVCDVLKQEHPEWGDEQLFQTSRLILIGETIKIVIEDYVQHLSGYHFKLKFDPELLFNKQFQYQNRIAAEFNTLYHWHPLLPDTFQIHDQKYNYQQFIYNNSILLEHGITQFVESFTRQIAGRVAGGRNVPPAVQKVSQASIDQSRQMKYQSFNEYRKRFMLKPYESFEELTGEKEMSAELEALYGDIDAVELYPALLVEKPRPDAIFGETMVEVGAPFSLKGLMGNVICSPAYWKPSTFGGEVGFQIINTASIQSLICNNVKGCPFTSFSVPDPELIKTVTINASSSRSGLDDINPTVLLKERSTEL

[2] = Inhibition of soybean 15-LOX assessed as decrease in leukotriene formation by enzyme immunoassay; design: species or system Glycine max
[3] = target: T2, Prostaglandin G/H synthase 1 (Ovis aries, UniProt P05979); assay: Inhibition of ovine COX1 using arachidonic acid as substrate assessed as decrease in PGF2 production preincubated for 15 mins followed by substrate addition measured after 2 mins by enzyme immunoassay
T2 sequence (P05979 whole entry): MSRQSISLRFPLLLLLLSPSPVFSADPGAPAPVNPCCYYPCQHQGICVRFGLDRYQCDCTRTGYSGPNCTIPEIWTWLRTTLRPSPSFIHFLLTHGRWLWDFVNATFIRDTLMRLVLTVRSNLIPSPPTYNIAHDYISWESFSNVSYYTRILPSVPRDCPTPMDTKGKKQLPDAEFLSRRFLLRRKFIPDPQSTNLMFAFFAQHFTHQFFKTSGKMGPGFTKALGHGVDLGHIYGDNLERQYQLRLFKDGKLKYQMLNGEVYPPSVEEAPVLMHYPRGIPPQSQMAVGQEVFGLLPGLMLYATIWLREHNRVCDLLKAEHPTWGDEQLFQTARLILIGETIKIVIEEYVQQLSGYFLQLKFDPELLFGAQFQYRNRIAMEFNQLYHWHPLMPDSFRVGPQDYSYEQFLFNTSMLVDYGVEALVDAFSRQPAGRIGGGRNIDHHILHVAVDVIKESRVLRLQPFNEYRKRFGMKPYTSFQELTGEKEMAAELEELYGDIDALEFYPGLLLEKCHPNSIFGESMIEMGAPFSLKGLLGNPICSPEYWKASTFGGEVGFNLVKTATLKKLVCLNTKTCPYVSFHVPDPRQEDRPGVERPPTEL

Rattus norvegicus [4] = assay: Antiinflammatory activity in albino rat assessed as inhibition of carrageenan-induced paw edema at 28 umol/kg, ip administered 1 hr post carrageenan challenge measured at 3 hrs post compound dosing relative to control; format: functional
Rattus norvegicus [5] = assay: Antiinflammatory activity in albino rat assessed as inhibition of carrageenan-induced paw edema at 28 umol/kg, ip administered 1 hr post carrageenan challenge measured at 1 hr post compound dosing relative to control; format: functional
[6] = Selectivity ratio of IC50 for ovine COX1 to IC50 for recombinant human COX2
Rattus norvegicus [7] = assay: Antiinflammatory activity in albino rat assessed as inhibition of carrageenan-induced paw edema at 28 umol/kg, ip administered 1 hr post carrageenan challenge measured at 5 hrs post compound dosing relative to control; format: functional
Rattus norvegicus [8] = assay: Ulcerogenic effect in albino rat assessed as ulcer index at 50 umol/kg, po qd administered for 3 days measured 1 hr post last dose; format: toxicity, organism-based; conditions: in vivo
Rattus norvegicus [9] = assay: Ulcerogenic effect in albino rat assessed as effect on architecture of gastric mucosa at 50 umol/kg, po qd administered for 3 days measured 1 hr post last dose by hematoxylin/eosin staining-based light microscopic method; format: toxicity, organism-based; conditions: in vivo
Rattus norvegicus [10] = assay: Ulcerogenic effect in albino rat assessed as effect on architecture of gastric mucosal surface at 50 umol/kg, po qd administered for 3 days measured 1 hr post last dose by scanning electron microscopic method; format: toxicity, organism-based; conditions: in vivo
Rattus norvegicus [11] = assay: Ulcerogenic effect in albino rat assessed as loss of demarcation between surface mucus cells at 50 umol/kg, po qd administered for 3 days measured 1 hr post last dose by scanning electron microscopic method; format: toxicity, organism-based; conditions: in vivo
Rattus norvegicus [12] = assay: Ulcerogenic effect in albino rat assessed as lymphocytic infiltration at 50 umol/kg, po qd administered for 3 days measured 1 hr post last dose by hematoxylin/eosin staining-based light microscopic method; format: toxicity, organism-based; conditions: in vivo
Rattus norvegicus [13] = assay: Ulcerogenic effect in albino rat assessed as congestion of blood vessels at 50 umol/kg, po qd administered for 3 days measured 1 hr post last dose by hematoxylin/eosin staining-based light microscopic method; format: toxicity, organism-based; conditions: in vivo
Rattus norvegicus [14] = assay: Ulcerogenic effect in albino rat assessed as submucosal edema at 50 umol/kg, po qd administered for 3 days measured 1 hr post last dose by hematoxylin/eosin staining-based light microscopic method; format: toxicity, organism-based; conditions: in vivo
Rattus norvegicus [15] = assay: Ulcerogenic effect in albino rat assessed as exfoliation of superficial epithelial cells at 50 umol/kg, po qd administered for 3 days measured 1 hr post last dose by hematoxylin/eosin staining-based light microscopic method; format: toxicity, organism-based; conditions: in vivo
Rattus norvegicus [16] = assay: Ulcerogenic effect in albino rat assessed as complete shedding of surface mucous cells leaving underlying gastric pit walls and openings with honeycomb shape at 50 umol/kg, po qd administered for 3 days measured 1 hr post last dose by scanning electron microscopic method; format: toxicity, organism-based; conditions: in vivo
Rattus norvegicus [17] = assay: Ulcerogenic effect in albino rat assessed as induction of necrosis in gastric mucosal cells at 50 umol/kg, po qd administered for 3 days measured 1 hr post last dose by hematoxylin/eosin staining-based light microscopic method; format: toxicity, organism-based; conditions: in vivo
Rattus norvegicus [18] = assay: Ulcerogenic effect in albino rat assessed as maceration of gastric mucosa at 50 umol/kg, po qd administered for 3 days measured 1 hr post last dose by hematoxylin/eosin staining-based light microscopic method; format: toxicity, organism-based; conditions: in vivo
[19] = Inhibition of soybean 15-LOX; design: species or system Glycine max

Compound	IC50 [1]	IC50 [2]	IC50 [3]	inhibition in vivo at 28 µmol/kg (Rattus norvegicus [4])	inhibition in vivo at 28 µmol/kg (Rattus norvegicus [5])	Ratio IC50 [6]	inhibition in vivo at 28 µmol/kg (Rattus norvegicus [7])	other results
Cc1c(C(=O)NC2CCCCC2)nc2ccc(Cl)cc2c1O	1.41 µM	6.54 µM	7.8 µM	50.1%	43.5%	5.53	52%	
Cc1c(C(=O)N2CCCCC2)nc2ccc(Cl)cc2c1O	3.14 µM	10.4 µM	12.4 µM	35.4%	30.1%	3.94	36.8%	
Cc1c(C(=O)N2CCNCC2)nc2ccc(Cl)cc2c1O	2.81 µM	8.43 µM	10.7 µM	37.5%	31.1%	3.8	38%	
Cc1c(C(=O)NC(CO)Cc2ccccc2)nc2ccc(Cl)cc2c1O (stereo unspecified)	2.78 µM		11.4 µM	39.5%	34.2%	4.1	41.3%	
Cc1c(C(=O)NCCc2ccccc2)nc2ccc(Cl)cc2c1O	2.54 µM	9.87 µM	11.4 µM	40.9%	35.8%	4.48	43.4%	
Cc1c(C(=O)N2CCN(c3ccccc3)CC2)nc2ccc(Cl)cc2c1O	1.13 µM	5.91 µM	8.6 µM	61%	49.5%	7.61	65%	UI (Rattus norvegicus [8]): 2.5; Activity (Rattus norvegicus [9]): Non-Toxic; Activity (Rattus norvegicus [10]): Non-Toxic; Activity (Rattus norvegicus [11]): Toxic; Activity (Rattus norvegicus [12]): Toxic
CCOC(=O)C(Cc1ccccc1)NC(=O)c1nc2ccc(Cl)cc2c(O)c1C (stereo unspecified)	1.91 µM	7.14 µM	9.6 µM	47.3%	40.5%	5.02	49%	
Cc1c(C(=O)NCc2nc3ccccc3[nH]2)nc2ccc(Cl)cc2c1O	1.21 µM	6.18 µM	7.9 µM	50.1%	45.2%	6.52	59.4%	UI (Rattus norvegicus [8]): 2.66; Activity (Rattus norvegicus [9]): Non-Toxic; Activity (Rattus norvegicus [10]): Non-Toxic; Activity (Rattus norvegicus [11]): Toxic; Activity (Rattus norvegicus [13]): Toxic
Cc1c(C(=O)N(C)c2ccccc2)nc2ccc(Cl)cc2c1O	1.74 µM		8.3 µM	45.6%	38.9%	4.77	47%	
COc1ccc2c(c1)c(CC(=O)O)c(C)n2C(=O)c1ccc(Cl)cc1 [INDOMETHACIN]								Activity (Rattus norvegicus [14]): Toxic; UI (Rattus norvegicus [8]): 17.23; Activity (Rattus norvegicus [15]): Toxic; Activity (Rattus norvegicus [16]): Toxic; Activity (Rattus norvegicus [17]): Toxic; Activity (Rattus norvegicus [13]): Toxic; Activity (Rattus norvegicus [12]): Toxic; Activity (Rattus norvegicus [18]): Toxic
Cc1c(C(=O)NCCc2ccc(N3CCCC3C)cc2)nc2ccc(Cl)cc2c1O (stereo unspecified)	1.91 µM		9.8 µM	48%	41%	5.1	49.7%	
Cc1c(C(=O)NC2CCCN(Cc3ccccc3)C2)nc2ccc(Cl)cc2c1O (stereo unspecified)	3.54 µM		13.1 µM	35.9%	31.4%	3.7	37.8%	
Cc1ccc(-c2cc(C(F)(F)F)nn2-c2ccc(S(N)(=O)=O)cc2)cc1 [CELECOXIB]				68.4%	57.1%		71.2%	
Cc1c(C(=O)NCCc2ccc(N3CCCCC3)cc2)nc2ccc(Cl)cc2c1O	2.11 µM	7.32 µM	10.4 µM	46.9%	39.8%	4.92	48.2%	
CC(C)(C)Nc1c(-c2cc3ccccc3nc2Cl)nc2sccn12								IC50 [19]: 11.5 µM
Cc1ccc(Cl)c(Nc2ccccc2C(=O)O)c1Cl [MECLOFENAMATE SODIUM]		5.64 µM						
Cc1c(C(=O)NCCc2ccc(N3CCCC3)cc2)nc2ccc(Cl)cc2c1O	1.69 µM	6.74 µM	7.5 µM	48%	41%	4.43	49.9%	
Cc1c(C(=O)NCCc2ccc(N(C)C)cc2)nc2ccc(Cl)cc2c1O	1.67 µM		8.3 µM	46.9%	39.1%	4.97	48.6%	

— ChEMBL document CHEMBL4004781, “Synthesis, biological evaluation, docking study and ulcerogenicity profiling of some novel quinoline-2-carboxamides as dual COXs/LOX inhibitors endowed with anti-inflammatory activity” (Eur J Med Chem, 2017)
